IC50, Activity and Ratio IC50 data for 20 molecules are collected here from ChEMBL document CHEMBL3112481, “Synthesis, nitric oxide release, and α-glucosidase inhibition of nitric oxide donating apigenin and chrysin derivatives” (Bioorg Med Chem, 2014).

Data set [1] can be described thus: Inhibition of alpha-glucosidase (unknown origin) assessed as hydrolysis of pNP-alpha-Glu into pNP measured for 10 mins by spectrophotometric analysis. Also on record: species or system Homo sapiens.
Data set [2] is described as follows: Induction of nitric oxide release at 10^-4 M after 1 hr by Griess assay in presence of L-cysteine relative to control. Format: physicochemical. The following applies: 100 µM. On the technique in general: The Griess reaction detects nitrite, a stable product of nitric oxide.
The species named for the next data set is Homo sapiens. Briefly: Potency index, ratio of apigenin IC50 to compound IC50 for alpha-glucosidase (unknown origin).

What is called IC50 is the concentration needed to halve the response being measured. Regarding `O=c1cc(-c2ccccc2)oc2cc(OCCO[N+](=O)[O-])cc(O)c12`, the IC50 in data set [1] worked out at 30 µM.

With `CC(=O)Oc1cc(OCCCCCCO[N+](=O)[O-])cc2oc(-c3ccccc3)cc(=O)c12`, the IC50 in data set [1] is more than 100 µM.

Take `O=C(COc1cc(O)c2c(=O)cc(-c3ccccc3)oc2c1)OCCO[N+](=O)[O-]`: in data set [1], the IC50 was determined as 24 µM.

Turning to `O=C(COc1ccc(-c2cc(=O)c3c(O)cc(OCC(=O)OCCCCCCO[N+](=O)[O-])cc3o2)cc1)OCCCCCCO[N+](=O)[O-]`, the IC50 in data set [1] was determined as 2.57 µM. Besides, in data set [2], the Activity amounted to 1.147%. For `O=c1cc(-c2ccccc2)oc2cc(OCCCCO[N+](=O)[O-])cc(O)c12`, the IC50 in data set [1] came out at 18.7 µM. Still for that read-out and setting: in the case of `O=c1cc(-c2ccccc2)oc2cc(O)cc(O)c12` [CHRYSIN] it was 77.7 µM; in that of `CC(=O)Oc1cc(OCCCCO[N+](=O)[O-])cc2oc(-c3ccccc3)cc(=O)c12`, more than 100 µM; in that of `O=C(COc1cc(O)c2c(=O)cc(-c3ccccc3)oc2c1)OCCCCO[N+](=O)[O-]`, 14.1 µM. On the same count and under the same terms, in the case of `O=C(COc1cc(O)c2c(=O)cc(-c3ccccc3)oc2c1)OCCCCCCO[N+](=O)[O-]` it was 3.39 µM; in that of `OC[C@H]1NC[C@H](O)[C@@H](O)[C@@H]1O` [DUVOGLUSTAT], 227 µM; in that of `O=c1cc(-c2ccccc2)oc2cc(OCCCCCCO[N+](=O)[O-])cc(O)c12`, 21 µM.

On to `O=c1cc(-c2ccc(OCCCCO[N+](=O)[O-])cc2)oc2cc(OCCCCO[N+](=O)[O-])cc(O)c12`, for which the half-inhibitory concentration (IC50) in data set [1] came out at 5.04 µM. Further, the Activity in data set [2] worked out at 0.24%.

As for `C[C@H]1O[C@H](O[C@H]2[C@H](O)[C@@H](O)[C@@H](O[C@H]3[C@H](O)[C@@H](O)C(O)O[C@@H]3CO)O[C@@H]2CO)[C@H](O)[C@@H](O)[C@@H]1N[C@H]1C=C(CO)[C@@H](O)[C@H](O)[C@H]1O` (stereo partly drawn) [ACARBOSE], in data set [1], the IC50 was determined as 564 µM. With `O=c1cc(-c2ccc(OCCO[N+](=O)[O-])cc2)oc2cc(OCCO[N+](=O)[O-])cc(O)c12`, in data set [1], the IC50 was determined as 7.78 µM. Moreover, the Activity in data set [2] is 0.3%.

With `O=c1cc(-c2ccc(O)cc2)oc2cc(O)cc(O)c12` [APIGENIN], the IC50 in data set [1] was determined as 16.8 µM. Same read-out and setting: in the case of `CC(=O)Oc1cc(OCCO[N+](=O)[O-])cc2oc(-c3ccccc3)cc(=O)c12` it was more than 100 µM. Regarding `O=[N+]([O-])OCC(CO[N+](=O)[O-])O[N+](=O)[O-]` [NITROGLYCERIN], the IC50 in data set [1] is more than 180 µM. The Activity in data set [2] came to 5.14%. The matching figures for `O=c1cc(-c2ccc(OCCCCCCO[N+](=O)[O-])cc2)oc2cc(OCCCCCCO[N+](=O)[O-])cc(O)c12`: 4.59 µM and 0.49%. As for `O=C(COc1ccc(-c2cc(=O)c3c(O)cc(OCC(=O)OCCO[N+](=O)[O-])cc3o2)cc1)OCCO[N+](=O)[O-]`, in data set [1], the IC50 was 3.71 µM. Moreover, the Activity in data set [2] is given as 1.237%. As to `O=C(COc1ccc(-c2cc(=O)c3c(O)cc(OCC(=O)OCCCCO[N+](=O)[O-])cc3o2)cc1)OCCCCO[N+](=O)[O-]`, in data set [1], the IC50 amounted to 2.33 µM. For the same molecule, the Ratio IC50 in the data set listed under Homo sapiens was determined as 7.2. In data set [2], the Activity is given as 1.757%.
